# According to patent publication US20090202571A1, “Bioreductively-activated prodrugs” (HOPNIC LABORATORY CO., LTD., priority 2004, published 2009):
# Columns and labels:
# human P450 reductase = target: T1, human P450 reductase (Homo sapiens, UniProt P16435); experiment: Drug release by human cytochrome P450 reductase; assay type: biochemical; conditions: NADPH, pH 7.4, 37° C.
# T1 construct: purchased Gentest or Cypex P244 (Gentest) or Cyp004 (Cypex)
# T1 sequence (P16435 1-677): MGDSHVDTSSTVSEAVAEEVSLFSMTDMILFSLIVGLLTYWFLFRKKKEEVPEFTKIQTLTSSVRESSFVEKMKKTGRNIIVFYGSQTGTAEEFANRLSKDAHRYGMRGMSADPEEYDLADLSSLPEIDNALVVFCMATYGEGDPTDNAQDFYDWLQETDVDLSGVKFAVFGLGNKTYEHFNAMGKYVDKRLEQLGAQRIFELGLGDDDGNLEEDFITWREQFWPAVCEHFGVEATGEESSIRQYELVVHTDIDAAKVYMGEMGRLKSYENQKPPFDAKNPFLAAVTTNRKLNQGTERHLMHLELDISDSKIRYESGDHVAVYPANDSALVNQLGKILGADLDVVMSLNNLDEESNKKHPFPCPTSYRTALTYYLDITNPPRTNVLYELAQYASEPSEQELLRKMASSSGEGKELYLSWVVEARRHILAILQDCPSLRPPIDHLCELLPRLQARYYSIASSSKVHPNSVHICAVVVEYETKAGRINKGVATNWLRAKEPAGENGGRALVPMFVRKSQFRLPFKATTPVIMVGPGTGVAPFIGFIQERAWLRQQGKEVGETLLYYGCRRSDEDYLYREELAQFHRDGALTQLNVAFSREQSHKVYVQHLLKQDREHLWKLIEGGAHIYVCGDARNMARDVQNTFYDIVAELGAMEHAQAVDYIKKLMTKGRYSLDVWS
# Protocol: Cytochrome p450 reductase is widely expressed in human tumours as well as in a range of normal tissues and is one of a number of enzymes that can catalyse bioreduction. […] For experiments under nitrogen the mixture was degassed with nitrogen for 20 minutes prior to compound addition and overgassed with nitrogen during the incubation.
# [1] = Metabolism in tumour homogenates; assay type: in vitro ADME; conditions: 5 μmol dm^−3 prodrug, NADPH, pH 7.4, 37° C.
# Protocol: Useful bioreductive prodrugs can be shown to release the active drug selectively under conditions of low oxygen in the presence of tumour homogenate in this assay. Freshly-excised CaNT tumours (approximately 0.5 to 1 g) were homogenised in 15 ml of ice-cold 50 mmol din^−3 potassium phosphate buffer at pH 7.4.
# A549 cells = experiment: Cellular cytotoxicity (Celltiter 96 Aqueous One Solution, MTS); assay type: cell-based; conditions: 61 h incubation period as printed, MTS absorbance 490 nm
# Source text: The cytotoxic or cytostatic properties of compounds of formula (1) and corresponding etoposide compounds can be assessed for example, by use, for example, of this assay. The Celltiter 96® Aqueous One Solution Cell Proliferation Assay kit (Promega Corporation, USA) which is a colorimetric method for determining the number of viable cells in proliferation or cytotoxicity assays was used. In this assay the MTS tetrazolium compound (Owen's Reagent) is bioreduced by viable cells into a coloured formazan product which is soluble in tissue culture medium and can be measured by recording absorbance at 490 nm with a 96 well plate reader. A549 cells were seeded in Eagles Minimum Essential Medium supplemented with 10% foetal calf serum and non-essential amino acids at 10^3 cell per well on a 96 well plate and allowed to attach for 24 h. Compounds were dissolved in DMSO and diluted with cell culture medium before addition. […] The MTS reagent was added to each well, left for 4 h, then the absorbance measured at 490 nm with a 96 well plate reader.
# [2] = 5 μmol dm^−3 prodrug, NADPH, pH 7.4, 37° C.
# Protocol: Freshly-excised mouse liver (approximately 1 g) was homogenised in 15 ml of ice-cold 50 mmol dm^−3 potassium phosphate buffer at pH 7.4. The homogenates were centrifuged at 1000 RPM for 10 min and the supernatants stored on ice. The metabolism of 5 µmol dm^−3 prodrug in air was performed with 0.5 ml liver homogenate (˜2 mg of protein by Bradford assay) with 100 µmol dm^−3 NADPH in 50 mmol dm^−3 potassium phosphate buffer at pH 7.4 incubated at 37° C. Samples (60 µl) were taken at regular intervals and added to an equivalent volume of acetonitrile, then mixed and centrifuged at 14, 300 RPM for 2 min prior to product analysis by HPLC.
molecule,measurement,setting,value
"9-[(4,6-O-Ethylidene-β-D-glucopyranosyl)oxy]-5,8,8a,9-tetrahydro-5-(4-(1-(5-nitrothien-2-yl)ethoxy)-3,5-dimethoxyphenyl)furo[3′,4′:6,7]naphtha[2,3-d]-1,3-dioxol-6(5aH)-one [Example 1]",drug production,human P450 reductase; under air,no drug production could be detected
same,rate of etoposide production,human P450 reductase; under anoxia (nitrogen),0.83 nmol min^−1 mg protein^−1
same,etoposide production,[1]; under air,no etoposide production was detected
same,rate of etoposide production,[1]; under nitrogen,17 μmol/min/mg protein
same,IC50,A549 cells,> 20 µM
"9-[(4,6-O-Ethylidene-β-D-glucopyranosyl)oxy]-5,8,8a,9-tetrahydro-5-(4-(5-nitrothien-2-yl)methoxy)-3,5-dimethoxyphenyl)furo[3′,4′:6,7]naphtha[2,3-d]-1,3-dioxol-6(5aH)-one [Example 2]",Rate of drug release (pmol/min/mg protein) Anoxic,[2]; Anoxic (nitrogen),388 pmol/min/mg protein
same,Rate of drug release (pmol/min/mg protein) Oxic,[2]; Oxic (air),7 pmol/min/mg protein
"COc1cc([C@@H]2c3cc4c(cc3[C@@H](O[C@@H]3O[C@@H]5CO[C@@H](C)O[C@H]5[C@H](O)[C@H]3O)[C@H]3COC(=O)[C@H]23)OCO4)cc(OC)c1O [etoposide, reference compound]",IC50,A549 cells; Homo sapiens,7.5 µM
